Tests used:
RAW264.7 [1] = assay: Inhibition of LPS-induced NO production in mouse RAW264.7 cells pretreated for 30 mins followed by LPS challenge measured after 24 hrs by Griess assay; assay type: functional, cell-based
RAW264.7 [2] = assay: Cytotoxicity against mouse RAW264.7 cells by MTT assay; assay type: cell-based
RAW264.7 [3] = assay: Inhibition of LPS-induced NO production in mouse RAW264.7 cells pretreated for 30 mins followed by LPS challenge measured after 12 hrs by Griess assay; assay type: functional, cell-based

Row | IC50 (RAW264.7 [1]) | IC50 (RAW264.7 [3]) | SMILES | Activity (RAW264.7 [2])
1 | 49.4 µM | – | COC(=O)[C@H]1O[C@@H](O[C@H]2CC[C@]3(C)[C@H]4CC=C5[C@@H]6CC(C)(C)CC[C@]6(CO)[C@H](O)C[C@@]5(C)[C@]4(C)CC[C@H]3C2(C)C)[C@H](O[C@@H]2O[C@@H](C)[C@H](O)[C@@H](O)[C@H]2O)[C@@H](O)[C@@H]1O | Non-Toxic
2 | – | 2.2 µM | COc1cc(O)cc(O)c1C(=O)/C=C/c1ccccc1 [CARDAMOMIN] | –
